# Measurements taken from ChEMBL document CHEMBL3046366, “Inhibitory effect of curcumin analogs on tissue factor procoagulant activity and their preliminary structureactivity relationships” (Med Chem Res, 2013).
# Target: T1, Tissue factor (Homo sapiens, UniProt P13726)
# Assay: Inhibition of tissue factor in Homo sapiens (human) THP1-cells using factor 10a chromogenic substrate assessed as inhibition of LPS-iduced procoagulant activity incubated for 1 hr prior to LPS-challenge measured after 5 hr by spectrophotometric analysis
# Type: cell-based
# Conditions: thp-1
# T1 sequence (P13726 whole entry): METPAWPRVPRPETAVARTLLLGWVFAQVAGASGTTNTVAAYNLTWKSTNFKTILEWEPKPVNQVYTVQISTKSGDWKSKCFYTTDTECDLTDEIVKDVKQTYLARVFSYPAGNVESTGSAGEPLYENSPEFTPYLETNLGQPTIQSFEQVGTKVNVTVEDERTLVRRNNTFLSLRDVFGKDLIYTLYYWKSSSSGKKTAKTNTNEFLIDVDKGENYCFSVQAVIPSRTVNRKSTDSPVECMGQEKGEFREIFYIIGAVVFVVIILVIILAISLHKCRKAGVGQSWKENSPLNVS
row,SMILES,IC50 [nM]
1,"O=C(/C=C/c1ccc(O)cc1)c1ccc(O)cc1 [4,4'-DIHYDROXYCHALCONE]",0.96
2,COc1ccc(C(=O)/C=C/c2ccc(O)cc2)cc1,142
3,"COc1ccc(/C=C/C(=O)c2ccc(OC)cc2)cc1 [4,4'-DIMETHOXYCHALCONE]",15.4
4,COc1cc(/C=C/C(=O)/C=C/c2ccc(O)c(OC)c2)ccc1O,> 200
5,O=C(/C=C/c1ccc(O)cc1)/C=C/c1ccc(O)cc1,2.58
6,COc1ccc(/C=C/C(=O)/C=C/c2ccc(OC)cc2)cc1,13.4

# Other lines, results leading:
row,IC50 [nM],SMILES
1,0.053,O=C(/C=C/c1ccccc1)/C=C/c1ccccc1
2,0.94,O=C1/C(=C/c2ccc(O)cc2)CCC/C1=C\c1ccc(O)cc1
3,> 200,COc1ccc(/C=C2\CCC/C(=C\c3ccc(OC)cc3)C2=O)cc1
4,0.12,O=C(/C=C/c1ccccc1)c1ccc(O)cc1 [4'-HYDROXYCHALCONE]
5,0.26,"O=C1/C(=C/c2ccccc2)CCC/C1=C\c1ccccc1 [2,6-DIBENZYLIDENECYCLOHEXANONE]"
6,> 200,COc1cc(/C=C2\CCC/C(=C\c3ccc(O)c(OC)c3)C2=O)ccc1O [CYCLOVALONE]

# Target: T1, Tissue factor
# Assay: Ratio of curcumin IC50 to compound IC50 for tissue factor in LPS-induced Homo sapiens (human) THP1 cells
# Type: cell-based
# Conditions: THP-1
row,Ratio IC50,SMILES
1,10000,O=C(/C=C/c1ccccc1)/C=C/c1ccccc1
2,10000,O=C(/C=C/c1ccccc1)c1ccc(O)cc1 [4'-HYDROXYCHALCONE]

# Target: not listed separately
# Assay: Inhibition of tissue factor in Homo sapiens (human) THP1-cells using factor 10a chromogenic substrate assessed as inhibition of LPS-iduced procoagulant activity incubated for 1 hr prior to LPS-challenge measured after 5 hr by spectrophotometric analysis
# Conditions: thp-1
row,IC50 [nM],SMILES
1,200,COc1cc(/C=C/C(=O)CC(=O)/C=C/c2ccc(O)c(OC)c2)ccc1O [CURCUMIN]
